In patent US8729116B2, “Triazole compound having pesticidal activities” (Kumiai Chemical Industry Co., Ltd., priority 2010, dated 2014):

Legend:
Assay type in all cases: in vivo
[1] = test system: susceptible strain two-spotted spider mite (Tetranychus urticae); experiment: Miticidal activity against adults of two-spotted spider mite (susceptible strain), leaf disk spray test; details: foliar, 48 h, spray 2 mg/cm^2 on kidney bean leaf disks, female adults, two days after treatment
Protocol: Miticidal Activity Against Adults of Two-Spotted Spider Mite (Susceptible Strain) (Leaf Disk Spray Test)
A plastic cup having a capacity of 60 mL was half-filled with water, and a perforated cover was put thereon. Absorbent cotton was impregnated with water through the perforations, and two sheets of filter paper were overlaid thereon. Two leaves of kidney beans (Phaseolus vulgaris) cutout in a circular shape with a diameter of 2, cm, were put thereon, and ten female adults of susceptible strain two-spotted spider mite (Tetranychus urticae) were inoculated and left to stand overnight in a constant temperature chamber at 25° C. (photoperiod conditions: light period of 16 hours/dark period of 8 hours). […] Upon expiration of two days after the treatment, the number of dead mites was counted, and the mortality was calculated by the formula 1. The test was carried out twice.

[2] = test system: resistant strain two-spotted spider mite (Tetranychus urticae); experiment: Miticidal activity against adults of two-spotted spider mite (resistant strain), leaf disk spray test; details: spray 2 mg/cm^2 on kidney bean leaf disks, female adults, two days after treatment; for Mortality (%): 100 ppm
Protocol: Miticidal Activity Against Adults of Two-Spotted Spider Mite (Resistant Strain) (Leaf Disk Spray Test)
A plastic cup having a capacity of 60 mL was half-filled with water, and a perforated cover was put thereon. Absorbent cotton was impregnated with water through the perforations, and two sheets of filter paper were overlaid thereon. Two leaves of kidney beans (Phaseolus vulgaris) cutout in a circular shape with a diameter of 2 cm, were put thereon, and ten female adults of resistant strain two-spotted spider mite (Tetranychus urticae) were inoculated and left to stand overnight in a constant temperature chamber at 25° C. (photoperiod conditions: light period of 16 hours/dark period of 8 hours). After removing abnormal mites and dead mites, a pesticide prepared by diluting the test compound formulated in accordance with Formulation Example 2 with a diluent such as water, as shown in Table 2 was sprayed by an automatic spraying device (2 mg/cm^2). Upon expiration of two days after the treatment, the number of dead mites was counted, and the mortality was calculated by the formula 1. The test was carried out twice.

[3] = test system: susceptible strain two-spotted spider mite (Tetranychus urticae); experiment: Penetration/transfer activity against two-spotted spider mite (susceptible strain), soil irrigation cup test; details: 0.0031 mg a.i./seedling, soil drench 5 mL/seedling, soybean, live mites counted after 13 days
Protocol: Penetration/Transfer Activity Against Two-Spotted Spider Mite (Susceptible Strain) (Soil Irrigation Cup Test)
To soybean (Glycine max) planted in a plastic cup, 35 female adults of susceptible strain two-spotted spider mite (Tetranychus urticae) were inoculated and left to stand overnight at a constant temperature chamber at 25° C. (photoperiod conditions: light period of 16 hours/dark period of 8 hours). A test pesticide prepared by diluting the test compound formulated in accordance with Formulation Example 2 to a predetermined concentration as disclosed in Table 4, was applied by soil drench treatment (5 mL/seedling). Upon expiration of 13 days, the number of live mites was counted, and the preventive value was calculated by the formula 2. The test was carried out twice.

[4] = test system: resistant strain red mite (Panonychus citri); experiment: Miticidal activity against adults of red mite (resistant strain), leaf disk spray test; details: spray 2 mg/cm^2 on cinnamon leaf disks, female adults, two days after treatment; for Mortality (%): 6.25 ppm
Protocol: Miticidal Activity Against Adults of Red Mite (Resistant Strain) (Leaf Disk Spray Test)
0.5 mass % of agar was blended to water and put into a plastic cup having a capacity of 60 mL, and two cinnamon leaf disks were put thereon and ten female adults of resistant strain red mite (Panonychus citri) were inoculated and left to stand overnight at a constant temperature chamber at 25° C. (photoperiod conditions: light period of 16 hours/dark period of 8 hours). […] Upon expiration of two days after the treatment, the number of dead mites was counted, and the mortality was calculated by the formula 1. The test was carried out twice.

Row | SMILES | mortality at 3.125 ppm [1] [%] | mortality at 100 ppm ([2]; Tetranychus urticae, foliar, 48 h) [%] | Preventive value (%) [3] [%] | mortality at 6.25 ppm ([4]; Panonychus citri, foliar, 48 h) [%] | Mortality (%) [2] [%] | Mortality (%) [4] [%] | mortality at 6.25 ppm ([1]; 6.25 ppm) [%]
1 | Cc1cc(F)c(-n2nc(C(F)(F)F)nc2N)cc1[S+]([O-])CC(F)(F)F (racemic) [Compound No. II, 1-[2-fluoro-4-methyl-5-(2,2,2-trifluoroethylsulfinyl)phenyl]-5-amino-3-(trifluoromethyl)-1H-1,2,4-triazole, reference compound] | 8 | 16 | 0 | 36 |  |  | 
2 | Cc1cc(F)c(-n2nc(C(F)(F)F)nc2N)cc1[S+]([O-])CC(F)(F)F (single isomer, unassigned; (+)) [Compound No. I, (+)-1-[2-fluoro-4-methyl-5-(2,2,2-trifluoroethylsulfinyl)phenyl]-5-amino-3-(trifluoromethyl)-1H-1,2,4-triazole] | 79 |  | 100 |  | 94 | 93 | 
3 | Cc1cc(F)c(-n2nc(C(F)(F)F)nc2N)cc1[S+]([O-])CC(F)(F)F (single isomer, unassigned; (-)) [Compound No. III, (−)-1-[2-fluoro-4-methyl-5-(2,2,2-trifluoroethylsulfinyl)phenyl]-5-amino-3-(trifluoromethyl)-1H-1,2,4-triazole] |  |  | 0 |  | 0 | 0 | 0
